Measurements taken from patent publication US9980927B2, “Use of tapentadol for inhibiting and/or treating depression and anxiety” (Gruenenthal GmbH, priority 2011, dated 2018).

System: patients with inadequately managed, severe chronic low back pain with or without a neuropathic pain component
Test: Hospital Anxiety and Depression Scale (HADS) anxiety score; open-label phase IIIb trial, tapentadol prolonged release 50-250 mg bid for up to 12 weeks
Assay type: in vivo, human patients
Details: for HADS anxiety score, course: Baseline to Week 12
Protocol: As used herein, the “anxiety score” is a value determining the degree of the […]. The scale of anxiety scores covers the range from 0 to 21, wherein the degree of the anxiety is high in case of high values and low in case of low values. In a group of tested subjects, typically the mean or mediate values of anxiety scores are determined and referred to. The mean value is the sum of all anxiety scores divided by the number of subjects. The mediate value is the middle anxiety score in the set of determined scores. Preferably, the “anxiety score” is defined as in the experimental section.
A subgroup suffering from neuropathic pain due to lumbar radiculopathy was also investigated.
This was a multicenter, multinational, open-label, effectiveness phase IIIb trial to evaluate effectiveness and safety of tapentadol prolonged release treatment in patients with inadequately managed, severe chronic low back pain with or without a neuropathic pain component. Patients taking WHO Step II analgesics discontinued those analgesics before starting study medication; patients taking Step I analgesics and/or centrally acting co-analgesics continued on the same dose. […] All patients received tapentadol prolonged release (50-250 mg bid) for up to 12 weeks (5-week titration period and a 7-week maintenance period). Tapentadol immediate release (IR) 50 mg (twice a day, hours apart) was permitted (combined total daily dose of tapentadol prolonged release and tapentadol IR, 500 mg/day). The primary efficacy endpoint was the change from Baseline to Week 6 (when tapentadol prolonged release doses were stable) in average pain intensity on the 11-point NRS-3 using the last observation carried forward (LOCF) for imputing missing scores. The painDETECT questionnaire was used to evaluate the likelihood of a neuropathic pain component of low back pain; patients were classified as painDETECT “negative,” “unclear,” or “positive.” The population of patients classified as painDETECT negative was limited to approximately 30% of the total population.
In the painDETECT positive trial population the “diagnosis of lumbar radiculopathy” was evaluated which was defined per study protocol according following criteria: • typical dermatomal pain (radiating beyond the knee towards the foot, pain evoked by stretching within distribution of the ischiadic/femoral nerve) • signs of root dysfunction: • such as sensory impairment, motor symptoms from compression of lumbar nerve root (L4, L5, S1). • and/or absent or diminished quadriceps femoris or triceps surae reflexes. • and/or quantitative sensory testing (QST) deficit and pain distribution present in the same dermatomal area.
All subjects completed Short Form-36 (SF-36) and EuroQol-5 Dimension (EQ-5D) questionnaires and the Hospital Anxiety and Depression Scale (HADS). The Patient Global Impression of Change (PGIC) and Clinical global impression of change (CGIC) were also used as secondary endpoints. For both tests, patients completed the statement, “since I began trial treatment, I would rate my overall condition as,” using 7 possible responses (“very much worse” to “very much improved”). Adverse events were recorded throughout the trial.
In the following • (i) N is the number of subjects of the specified diagnosis group, • (ii) n is the number of subjects with data available, • (iii) “Mean” is the mean score of the subjects, i.e. the sum of all scores is divided by the number of subjects, • (iv) SD is the standard deviation, • (v) “Median” is the median score of the subjects, i.e. the middle score in the set of scores, • (vi) “Range” is the range of scores of the subjects, i.e. the range defined by the lowest and the highest score of the set of scores. First, the depression scores are presented. The total number of subjects in the clinical study: N=175

[1] = Visit 1, defined neuropathic pain N=85
[2] = Visit 1, positive diagnosis of lumbar radiculopathy-neuropathic pain subset N=44
[3] = Visit 1, presumed neuropathic pain component N=41
[4] = Visit 1, presumed or defined neuropathic pain component N=126
[5] = Visit 1, subjects with nociceptive pain N=49
[6] = Visit 5, defined neuropathic pain N=85
[7] = Visit 5, positive diagnosis of lumbar radiculopathy-neuropathic pain subset N=44
[8] = Visit 5, presumed neuropathic pain component N=41
[9] = Visit 5, presumed or defined neuropathic pain component N=126
[10] = Visit 5, subjects with nociceptive pain N=49
[11] = Visit 6, defined neuropathic pain N=85
[12] = Visit 6, positive diagnosis of lumbar radiculopathy-neuropathic pain subset N=44
[13] = Visit 6, presumed neuropathic pain component N=41
[14] = Visit 6, presumed or defined neuropathic
[15] = Visit 6, presumed or defined neuropathic pain component N=126
[16] = Visit 6, subjects with nociceptive pain N=49
[17] = Visit 7, defined neuropathic pain N=85
[18] = Visit 7, positive diagnosis of lumbar radiculopathy-neuropathic pain subset N=44
[19] = Visit 7, presumed neuropathic pain component N=41
[20] = Visit 7, presumed or defined neuropathic pain component N=126
[21] = Visit 7, subjects with nociceptive pain N=49
[22] = Visit 8, defined neuropathic pain N=85
[23] = Visit 8, positive diagnosis of lumbar radiculopathy-neuropathic pain subset N=44
[24] = Visit 8, presumed neuropathic pain component N=41
[25] = Visit 8, presumed or defined neuropathic
[26] = Visit 8, presumed or defined neuropathic pain component N=126
[27] = Visit 8, subjects with nociceptive pain N=49
[28] = Visit 9, defined neuropathic pain N=85
[29] = Visit 9, positive diagnosis of lumbar radiculopathy-neuropathic pain subset N=44
[30] = Visit 9, presumed neuropathic pain component N=41
[31] = Visit 9, presumed or defined neuropathic pain component N=126
[32] = Visit 9, subjects with nociceptive pain N=49
[33] = Visit 10, defined neuropathic pain N=85
[34] = Visit 10, positive diagnosis of lumbar radiculopathy-neuropathic pain subset N=44
[35] = Visit 10, presumed neuropathic pain component N=41
[36] = Visit 10, presumed or defined neuropathic pain component N=126
[37] = Visit 10, subjects with nociceptive pain N=49
[38] = Visit 11, defined neuropathic pain N=85
[39] = Visit 11, positive diagnosis of lumbar radiculopathy-neuropathic pain subset N=44
[40] = Visit 11, presumed neuropathic pain component N=41
[41] = Visit 11, presumed or defined neuropathic pain component N=126
[42] = Visit 11, subjects with nociceptive pain N=49
[43] = Visit 12, defined neuropathic pain N=85
[44] = Visit 12, positive diagnosis of lumbar radiculopathy-neuropathic pain subset N=44
[45] = Visit 12, presumed neuropathic pain component N=41
[46] = Visit 12, presumed or defined neuropathic
[47] = Visit 12, presumed or defined neuropathic pain component N=126
[48] = Visit 12, subjects with nociceptive pain N=49

## CC[C@@H](c1cccc(O)c1)[C@@H](C)CN(C)C [tapentadol, (−)-(1R,2R)-3-(3-dimethylamino-1-ethyl-2-methyl-propyl)-phenol]
painDETECT negative
  HADS anxiety score, course: not significantly
painDETECT unclear/positive, P<0.0001 at Visit 12
  HADS anxiety score, course: improved steadily
Positive diagnosis of lumbar radiculopathy-neuropathic pain subset, p=0.0105 at Visit 12
  HADS anxiety score, course: improved steadily
[1]
  Anxiety score Mean (SD): 8.3 (4.01)
  Anxiety score Median: 8.0
[2]
  Anxiety score Mean (SD): 8.7 (3.64)
  Anxiety score Median: 9.0
[3]
  Anxiety score Mean (SD): 7.9 (4.52)
  Anxiety score Median: 7.0
[4]
  Anxiety score Mean (SD): 8.2 (4.16)
  Anxiety score Median: 8.0
[5]
  Anxiety score Mean (SD): 5.9 (4.19)
  Anxiety score Median: 6.0
Visit 1, total subjects N=175
  Anxiety score Mean (SD): 7.6 (4.28)
  Anxiety score Median: 7.0
[6]
  Anxiety score Mean (SD): 7.2 (3.89)
  Anxiety score Median: 8.0
[7]
  Anxiety score Mean (SD): 6.8 (3.39)
  Anxiety score Median: 7.5
[8]
  Anxiety score Mean (SD): 6.7 (4.22)
  Anxiety score Median: 7.0
[9]
  Anxiety score Mean (SD): 7.0 (3.98)
  Anxiety score Median: 7.0
[10]
  Anxiety score Mean (SD): 6.1 (3.80)
  Anxiety score Median: 5.0
Visit 5, total subjects N=175
  Anxiety score Mean (SD): 6.8 (3.94)
  Anxiety score Median: 7.0
Visit 6
  Anxiety score change from baseline Mean (SD): −1.6 (3.58)
  Anxiety score change from baseline Median: −1.0
Visit 6, defined neuropathic
  Anxiety score change from baseline Mean (SD): −1.4 (3.44)
  Anxiety score change from baseline Median: −1.0
[11]
  Anxiety score Mean (SD): 6.9 (3.66)
  Anxiety score Median: 6.0
Visit 6, lumbar radiculopathy
  Anxiety score change from baseline Mean (SD): −1.4 (3.88)
  Anxiety score change from baseline Median: −0.5
Visit 6, nociceptive
  Anxiety score change from baseline Mean (SD): −0.3 (2.93)
  Anxiety score change from baseline Median: 0.0
[12]
  Anxiety score Mean (SD): 7.1 (3.46)
  Anxiety score Median: 7.5
[13]
  Anxiety score Mean (SD): 6.9 (3.99)
  Anxiety score Median: 6.0
[14]
  Anxiety score change from baseline Mean (SD): −1.5 (3.47)
  Anxiety score change from baseline Median: −1.0
[15]
  Anxiety score Mean (SD): 6.9 (3.75)
  Anxiety score Median: 6.0
[16]
  Anxiety score Mean (SD): 5.8 (4.68)
  Anxiety score Median: 5.0
Visit 6, total
  Anxiety score change from baseline Mean (SD): −1.2 (3.36)
  Anxiety score change from baseline Median: −1.0
Visit 6, total subjects N=175
  Anxiety score Mean (SD): 6.6 (4.02)
  Anxiety score Median: 6.0
[17]
  Anxiety score Mean (SD): 6.1 (3.91)
  Anxiety score Median: 6.0
[18]
  Anxiety score Mean (SD): 6.1 (3.85)
  Anxiety score Median: 6.0
[19]
  Anxiety score Mean (SD): 5.9 (4.08)
  Anxiety score Median: 5.5
[20]
  Anxiety score Mean (SD): 6.0 (3.95)
  Anxiety score Median: 6.0
[21]
  Anxiety score Mean (SD): 5.6 (4.15)
  Anxiety score Median: 5.0
Visit 7, total subjects N=175
  Anxiety score Mean (SD): 5.9 (3.99)
  Anxiety score Median: 6.0
Visit 8
  Anxiety score change from baseline Mean (SD): −2.9 (3.11)
  Anxiety score change from baseline Median: −2.0
Visit 8, defined neuropathic
  Anxiety score change from baseline Mean (SD): −2.2 (3.77)
  Anxiety score change from baseline Median: −2.0
[22]
  Anxiety score Mean (SD): 6.0 (3.66)
  Anxiety score Median: 5.0
Visit 8, lumbar radiculopathy
  Anxiety score change from baseline Mean (SD): −2.4 (4.23)
  Anxiety score change from baseline Median: −1.0
Visit 8, nociceptive
  Anxiety score change from baseline Mean (SD): −0.7 (3.88)
  Anxiety score change from baseline Median: −1.0
[23]
  Anxiety score Mean (SD): 5.9 (3.74)
  Anxiety score Median: 5.0
[24]
  Anxiety score Mean (SD): 4.9 (4.04)
  Anxiety score Median: 4.0
[25]
  Anxiety score change from baseline Mean (SD): −2.4 (3.57)
  Anxiety score change from baseline Median: −2.0
[26]
  Anxiety score Mean (SD): 5.7 (3.80)
  Anxiety score Median: 5.0
[27]
  Anxiety score Mean (SD): 5.4 (4.40)
  Anxiety score Median: 4.0
Visit 8, total
  Anxiety score change from baseline Mean (SD): −1.9 (3.72)
  Anxiety score change from baseline Median: −2.0
Visit 8, total subjects N=175
  Anxiety score Mean (SD): 5.6 (3.95)
  Anxiety score Median: 5.0
[28]
  Anxiety score Mean (SD): 6.1 (3.99)
  Anxiety score Median: 5.0
[29]
  Anxiety score Mean (SD): 6.2 (4.01)
  Anxiety score Median: 5.0
[30]
  Anxiety score Mean (SD): 6.1 (5.10)
  Anxiety score Median: 6.0
[31]
  Anxiety score Mean (SD): 6.1 (4.32)
  Anxiety score Median: 5.0
[32]
  Anxiety score Mean (SD): 4.6 (3.34)
  Anxiety score Median: 4.0
Visit 9, total subjects N=175
  Anxiety score Mean (SD): 5.7 (4.10)
  Anxiety score Median: 4.0
[33]
  Anxiety score Mean (SD): 6.1 (3.98)
  Anxiety score Median: 6.0
[34]
  Anxiety score Mean (SD): 6.1 (3.85)
  Anxiety score Median: 6.0
[35]
  Anxiety score Mean (SD): 5.5 (5.46)
  Anxiety score Median: 4.0
[36]
  Anxiety score Mean (SD): 5.9 (4.46)
  Anxiety score Median: 5.0
[37]
  Anxiety score Mean (SD): 4.7 (3.21)
  Anxiety score Median: 4.0
Visit 10, total subjects N=175
  Anxiety score Mean (SD): 5.6 (4.16)
  Anxiety score Median: 5.0
[38]
  Anxiety score Mean (SD): 5.9 (3.84)
  Anxiety score Median: 5.5
[39]
  Anxiety score Mean (SD): 6.3 (4.25)
  Anxiety score Median: 6.5
[40]
  Anxiety score Mean (SD): 5.1 (4.25)
  Anxiety score Median: 4.0
[41]
  Anxiety score Mean (SD): 5.6 (3.96)
  Anxiety score Median: 5.0
[42]
  Anxiety score Mean (SD): 4.8 (3.77)
  Anxiety score Median: 4.0
Visit 11, total subjects N=175
  Anxiety score Mean (SD): 5.4 (3.91)
  Anxiety score Median: 5.0
Visit 12
  Anxiety score change from baseline Mean (SD): −3.1 (3.16)
  Anxiety score change from baseline Median: −3.0
Visit 12, defined neuropathic
  Anxiety score change from baseline Mean (SD): −2.3 (4.14)
  Anxiety score change from baseline Median: −2.0
[43]
  Anxiety score Mean (SD): 5.7 (3.80)
  Anxiety score Median: 5.0
Visit 12, lumbar radiculopathy
  Anxiety score change from baseline Mean (SD): −2.2 (4.11)
  Anxiety score change from baseline Median: −2.0
Visit 12, nociceptive
  Anxiety score change from baseline Mean (SD): −0.8 (2.82)
  Anxiety score change from baseline Median: −1.0
[44]
  Anxiety score Mean (SD): 5.7 (3.59)
  Anxiety score Median: 6.0
[45]
  Anxiety score Mean (SD): 4.8 (3.67)
  Anxiety score Median: 4.0
[46]
  Anxiety score change from baseline Mean (SD): −2.5 (3.85)
  Anxiety score change from baseline Median: −2.0
[47]
  Anxiety score Mean (SD): 5.4 (3.76)
  Anxiety score Median: 5.0
[48]
  Anxiety score Mean (SD): 4.5 (3.65)
  Anxiety score Median: 3.0
Visit 12, total
  Anxiety score change from baseline Mean (SD): −2.1 (3.67)
  Anxiety score change from baseline Median: −2.0
Visit 12, total subjects N=175
  Anxiety score Mean (SD): 5.2 (3.73)
  Anxiety score Median: 4.0
Conclusion from the clinical data
  efficacy against anxiety: significant efficacy
